In patent US10420772B2, “Animal and human anti-trypanosomonal and anti-leishmania agents” (Celgene Corporation, priority 2016, dated 2019):
Where two headings read alike, the source gives them in different places.

Experiments:
Type in all cases: cell-based
[1] = system: IL3000 T. congolense (drug sensitive) strain; experiment: In vitro Alamar Blue 72 hrs drug sensitivity assay for T. congolense; conditions: Trypanosoma congolense, IL3000 T. congolense bloodstream form, read-out: T. congo Act.
Experimental: In Vitro Alamar Blue 72 Hrs Drug Sensitivity Assay for T. Congolense. Compounds were tested in vitro for chemotherapeutic efficacy against the IL3000 T. congolense (drug sensitive) strain using an Alamar Blue assay. Test compounds were prepared as 10 mg/mL DMSO stocks for each assay run. Compounds were assayed in at least three separate, independent test runs and an 11-point dilution curve was used to determine the IC50 values. Bloodstream form trypanosomes were supported in HMI media containing 20% bovine serum and were incubated with test compounds for 69 hrs at 34° C. in a humidified atmosphere containing 5% CO2. Thereafter, 10 μL of Resazurin dye (12.5 mg in 100 mL of phosphate buffered saline, Sigma-Aldrich, Buchs, Switzerland) were added for an additional 3 hrs. Plates were then read using a fluorescent plate reader (Spectramax, Gemini XS, Bucher Biotec, Basel, Switzerland) using an excitation wavelength of 536 nm and an emission wavelength of 588 nm. Data points were averaged to generate sigmoidal dose-response curves and IC50 values were determined using Softmax Pro 5.2 software.

[2] = system: STIB 719/ILRAD 560 T. vivax (drug sensitive) strain; experiment: Ex vivo Alamar Blue 48 hrs drug sensitivity assay for T. vivax; conditions: Trypanosoma vivax, read-out: T. vivax Act.
Experimental: Ex vivo Alamar Blue48 hrs drug sensitivity assay for T. vivax. Compounds were tested ex vivo for chemotherapeutic efficacy against the STIB 719/ILRAD 560 T. vivax (drug sensitive) strain, using an Alamar Blue assay. Test compounds were prepared as 10 mg/mL DMSO stocks for each assay run. Compounds were assayed in at least three separate, independent test runs and an 11-point dilution curve was used to determine the IC50 values. Bloodstream form trypanosomes were propagated and harvested from a highly parasitaemic mouse (via cardiac puncture) and were incubated with test compounds for 45 hrs at 37° C. in a humidified atmosphere containing 5% CO2, supported in HMI media containing 20% bovine serum. Thereafter, 10 μL of Resazurin dye (12.5 mg in 100 mL of phosphate buffered saline, Sigma-Aldrich, Buchs, Switzerland) were added for an additional 3 hrs. Plates were then read using a fluorescent plate reader (Spectramax, Gemini XS, Bucher Biotec, Basel, Switzerland) using an excitation wavelength of 536 nm and an emission wavelength of 588 nm. Data points were averaged to generate sigmoidal dose-response curves and IC50 values were determined using Softmax Pro 5.2 software.

[3] = system: STIB 806 K T. evansi (drug sensitive) strain; experiment: In vitro Alamar Blue 72 hrs drug sensitivity assay for T. evansi; conditions: read-out: T. evansi Act.
Experimental: In vitro Alamar Blue 72 hrs drug sensitivity assay for T. evansi. Compounds were tested in vitro for chemotherapeutic efficacy against the STIB 806 K T. evansi (drug sensitive) strain, using an Alamar Blue assay. Test compounds were prepared as 10 mg/mL DMSO stocks for each assay run. Compounds were assayed in at least three separate, independent test runs and an 11-point dilution curve was used to determine the IC50 values. Bloodstream form trypanosomes were incubated with test compounds for 69 hrs at 37° C. in a humidified atmosphere containing 5% CO2, supported in HMI media containing 15% horse serum. Thereafter, 10 μL of Resazurin dye (12.5 mg in 100 mL of phosphate buffered saline, Sigma-Aldrich, Buchs, Switzerland) were added for an additional 3 hrs. Plates were then read using a fluorescent plate reader (Spectramax, Gemini XS, Bucher Biotec, Basel, Switzerland) using an excitation wavelength of 536 nm and an emission wavelength of 588 nm. Data points were averaged to generate sigmoidal dose-response curves and IC50 values were determined using Softmax Pro 5.2 software.

[4] = STIB719, STIB 719/ILRAD 560 T. vivax bloodstream form, ex vivo, Alamar Blue, 48 hrs
[5] = STIB 806 K T. evansi bloodstream form, Alamar Blue, 72 hrs

| Compound | IC50 [1] [nM] | IC50 [2, 4] [nM] | IC50 [3, 5] [nM] | IC50 ([2]; STIB719, 48 h) [nM] | IC50 ([3]; 72 h) [nM] |
| --- | --- | --- | --- | --- | --- |
| CC1(Nc2ncc3nc(Nc4cccc(Cl)c4)n(C4CCC(CN)CC4)c3n2)CCOCC1 (centres unmarked) [A-1, 9-((1s,4s)-4-(aminomethyl)cyclohexyl)-N8-(3-chlorophenyl)-N2-(4-methyltetrahydro-2H-pyran-4-yl)-9H-purine-2,8-diamine] | < 150 | < 150 | < 150 |  |  |
| CC1(Nc2ncc3nc(Nc4cccc(Cl)c4)n(C4CCC(CN)CC4)c3n2)CCCC1 (centres unmarked) [A-4, 9-((1s,4s)-4-(aminomethyl)cyclohexyl)-N8-(3-chlorophenyl)-N2-(1-methylcyclopentyl)-9H-purine-2,8-diamine] | < 150 |  |  | < 150 | < 150 |
| CN(C)C[C@H]1CC[C@@H](n2c(Nc3cccc(Cl)c3)nc3cnc(NC4(C)CCOCC4)nc32)CC1 [A-5, N8-(3-chlorophenyl)-9-((1s,4s)-4-((dimethylamino)methyl)cyclohexyl)-N2-(4-methyltetrahydro-2H-pyran-4-yl)-9H-purine-2,8-diamine] | < 150 | < 150 | < 150 |  |  |
| CC1(Nc2ncc3nc(Nc4cccc(Cl)c4)n([C@H]4CC[C@H](CN)CC4)c3n2)CCOCC1 [A-7, 9-((1r,4r)-4-(aminomethyl)cyclohexyl)-N8-(3-chlorophenyl)-N2-(4-methyltetrahydro-2H-pyran-4-yl)-9H-purine-2,8-diamine] | < 150 | < 150 | < 150 |  |  |
| CC(=O)NC[C@H]1CC[C@@H](n2c(Nc3cccc(Cl)c3)nc3cnc(NC4(C)CCOCC4)nc32)CC1 [A-11, N-(((1s,4s)-4-(8-(3-chlorophenylamino)-2-(4-methyltetrahydro-2H-pyran-4-ylamino)-9H-purin-9-yl)cyclohexyl)methyl)acetamide] | 350 to 500 | < 150 | 350 to 500 |  |  |
| CCC(C)(C)Nc1ncc2nc(Nc3cccc(C(F)(F)F)c3)n([C@H]3CC[C@@H](CN)CC3)c2n1 [A-13, 9-((1s,4s)-4-(aminomethyl)cyclohexyl)-N2-tert-pentyl-N8-(3-(trifluoromethyl)phenyl)-9H-purine-2,8-diamine] | < 150 | < 150 | < 150 |  |  |
| CC1(Nc2ncc3nc(Nc4cccc(C(F)(F)F)c4)n([C@H]4CC[C@@H](CN)CC4)c3n2)CCOCC1 [A-28, 9-((1s,4s)-4-(aminomethyl)cyclohexyl)-N2-(4-methyltetrahydro-2H-pyran-4-yl)-N8-(3-(trifluoromethyl)phenyl)-9H-purine-2,8-diamine] | < 150 | < 150 | < 150 |  |  |
| CC1(Nc2ncc3nc(Nc4ccnc(C(F)(F)F)c4)n([C@H]4CC[C@@H](CN)CC4)c3n2)CCOCC1 [A-34, 9-((1s,4s)-4-(aminomethyl)cyclohexyl)-N2-(4-methyltetrahydro-2H-pyran-4-yl)-N8-(2-(trifluoromethyl)pyridin-4-yl)-9H-purine-2,8-diamine] | < 150 | < 150 | < 150 |  |  |
| CC1(Nc2ncc3nc(Nc4cc(Cl)cc(C(F)(F)F)c4)n([C@H]4CC[C@@H](CN)CC4)c3n2)CCOCC1 [A-36, 9-((1s,4s)-4-(aminomethyl)cyclohexyl)-N8-(3-chloro-5-(trifluoromethyl)phenyl)-N2-(4-methyltetrahydro-2H-pyran-4-yl)-9H-purine-2,8-diamine] | < 150 | < 150 | 150 to 350 |  |  |
| CC1(Nc2ncc3nc(Nc4cccc(OC(F)(F)F)c4)n([C@H]4CC[C@@H](CN)CC4)c3n2)CCOCC1 [A-37, 9-((1s,4s)-4-(aminomethyl)cyclohexyl)-N2-(4-methyltetrahydro-2H-pyran-4-yl)-N8-(3-(trifluoromethoxy)phenyl)-9H-purine-2,8-diamine] | < 150 | < 150 | < 150 |  |  |
| CC1(Nc2ncc3nc(Nc4ccc(OC(F)(F)F)cc4)n([C@H]4CC[C@@H](CN)CC4)c3n2)CCOCC1 [A-38, 9-((1s,4s)-4-(aminomethyl)cyclohexyl)-N2-(4-methyltetrahydro-2H-pyran-4-yl)-N8-(4-(trifluoromethoxy)phenyl)-9H-purine-2,8-diamine] | < 150 | < 150 | 150 to 350 |  |  |
| CC1(Nc2ncc3nc(Nc4cccc(Cl)c4)n([C@H]4CC[C@@H](CN5CCCCC5)CC4)c3n2)CCOCC1 [A-40, N8-(3-chlorophenyl)-N2-(4-methyltetrahydro-2H-pyran-4-yl)-9-((1s,4s)-4-(piperidin-1-ylmethyl)cyclohexyl)-9H-purine-2,8-diamine] | < 150 | < 150 | < 150 |  |  |
| CC1(Nc2ncc3nc(Nc4cc(Cl)cc(Cl)c4)n([C@H]4CC[C@@H](CN)CC4)c3n2)CCOCC1 [A-43, 9-((1s,4s)-4-(aminomethyl)cyclohexyl)-N8-(3,5-dichlorophenyl)-N2-(4-methyltetrahydro-2H-pyran-4-yl)-9H-purine-2,8-diamine] | < 150 | < 150 | < 150 |  |  |
| CC1(Nc2ncc3nc(Nc4cc(F)cc(F)c4)n([C@H]4CC[C@@H](CN)CC4)c3n2)CCOCC1 [A-44, 9-((1s,4s)-4-(aminomethyl)cyclohexyl)-N8-(3,5-difluorophenyl)-N2-(4-methyltetrahydro-2H-pyran-4-yl)-9H-purine-2,8-diamine] | < 150 | < 150 | < 150 |  |  |
| CC1(Nc2ncc3nc(Nc4cc(Cl)ccc4F)n([C@H]4CC[C@@H](CN)CC4)c3n2)CCOCC1 [A-50, 9-((1s,4s)-4-(aminomethyl)cyclohexyl)-N8-(5-chloro-2-fluorophenyl)-N2-(4-methyltetrahydro-2H-pyran-4-yl)-9H-purine-2,8-diamine] | < 150 |  | < 150 |  |  |
| CN(C)C[C@H]1CC[C@@H](n2c(Nc3cccc(C(F)(F)F)c3)nc3cnc(NC4(C)CCOCC4)nc32)CC1 [A-56, 9-((1s,4s)-4-((dimethylamino)methyl)cyclohexyl)-N2-(4-methyltetrahydro-2H-pyran-4-yl)-N8-(3-(trifluoromethyl)phenyl)-9H-purine-2,8-diamine] | < 150 |  | < 150 |  |  |
| NCC1CCC(n2c(Nc3cc(Cl)cc(C(F)(F)F)c3)nc3cnc(NC4CCOCC4)nc32)CC1 (centres unmarked) [B-12, 9-((1s,4s)-4-(aminomethyl)cyclohexyl)-N8-(3-chloro-5-(trifluoromethyl)phenyl)-N2-(tetrahydro-2H-pyran-4-yl)-9H-purine-2,8-diamine] | 350 to 500 | 350 to 500 |  |  |  |
| CN(C)c1ncc2nc(Nc3cc(C(F)(F)F)ccc3F)n(C3CCC(CN)CC3)c2n1 (centres unmarked) [B-14, 9-((1s,4s)-4-(aminomethyl)cyclohexyl)-N8-(2-fluoro-5-(trifluoromethyl)phenyl)-N2,N2-dimethyl-9H-purine-2,8-diamine] | 350 to 500 | < 150 |  |  |  |
| NCC1CCC(n2c(Nc3cc(C(F)(F)F)ccc3F)nc3cnc(N4CCCC4)nc32)CC1 (centres unmarked) [B-15, 9-((1s,4s)-4-(aminomethyl)cyclohexyl)-N-(2-fluoro-5-(trifluoromethyl)phenyl)-2-(pyrrolidin-1-yl)-9H-purin-8-amine] | 150 to 350 | < 150 |  |  |  |
| NCC1CCC(n2c(Nc3cc(C(F)(F)F)ccc3F)nc3cnc(NC4CCOCC4)nc32)CC1 (centres unmarked) [B-16, 9-((1s,4s)-4-(aminomethyl)cyclohexyl)-N8-(2-fluoro-5-(trifluoromethyl)phenyl)-N2-(tetrahydro-2H-pyran-4-yl)-9H-purine-2,8-diamine] | 350 to 500 | < 150 |  |  |  |
| NCC1CCC(n2c(Nc3cc(Cl)ccc3F)nc3cnc(NC4CCOCC4)nc32)CC1 (centres unmarked) [B-17, 9-((1s,4s)-4-(aminomethyl)cyclohexyl)-N8-(5-chloro-2-fluorophenyl)-N2-(tetrahydro-2H-pyran-4-yl)-9H-purine-2,8-diamine] | < 150 | < 150 |  |  |  |
